In patent US10471118B2, “Retinylamine derivitives for treatment of ocular disorders” (CASE WESTERN RESERVE UNIVERSITY, priority 2014, dated 2019):
“Also recorded” adds a separate entry of the source.

Columns and labels:
Abca4^−/−Rdh8^−/− mice = test: Light-induced retinal degeneration in Abca4-/-Rdh8-/- mice (OCT, ERG, histology), Example 1; type: in vivo, mouse; conditions: 0.875 μmol per mouse oral gavage 16 h before 10,000 lux 1 h, OCT after 3 days in dark
Method: Abca4^−/−Rdh8^−/− double knockout mice were housed in the animal facility at the School of Medicine, Case Western Reserve University, where they were maintained under either complete darkness or a 12-h light (−10 1×) and 12-h dark cycle. All retinylamine tested were dissolved or suspended in 100 μl of vegetable oil with less than 10% (v/v) DMSO and were administered by oral gavage with a 22-gauge feeding needle. Experimental manipulations in the dark were done under dim red light transmitted through a Kodak No. 1 safelight filter (transmittance >560 nm). All animal procedures and experiments were approved by the Case Western Reserve University Animal Care Committees and conformed to recommendations of the American Veterinary Medical Association Panel on Euthanasia and the Association of Research for Vision and Ophthalmology.
After dark adaptation for 48 h, one or two Abca4^−/−Rdh8^−/− mice with pupils dilated by 1% tropicamide were exposed to fluorescent light (10,000 1×; 150-W spiral lamp, Commercial Electric) for 60 min in a white plastic bucket (Papersmith) with food and water and then kept in the dark. Histological and biochemical experiments were performed 3 days after exposure.
Ultra-high resolution spectral-domain OCT (SD-OCT; Bioptigen) and Heidelberg Retinal Angiograph II SLO (Heidelberg Engineering) were used for in vivo imaging of mouse retinas. Mice were anesthetized by intraperitoneal injection of a cocktail (20 μl g-1 body weight) containing ketamine (6 mg ml-1) and xylazine (0.44 mg ml-1) in 10 mM sodium phosphate, pH 7.2, and 100 mM NaCl. Pupils were dilated with 1% tropicamide. Four pictures acquired in the B-scan mode were used to construct each final averaged SD-OCT image.
All ERG procedures were performed by published methods. For single-flash recording, the duration of white-light flash stimuli (from 20 μs to 1 ms) was adjusted to provide a range of illumination intensities (from −3.7 to 1.6 log cd s m-2). Three to five recordings were made at sufficient intervals between flash stimuli (from 3 s to 1 min) to allow recovery from any photobleaching effects.
Mouse eyes were fixed for 24 h by rocking in a fixation solution (2 ml/eye) containing 4% paraformaldehyde and 1% glutaraldehyde in PBS. The tissue was processed through a series of ethanols, xylenes, and paraffins in a Tissue-Tek VIP automatic processor (Sakura, Torrance, Calif., USA), and 5-μm sections were cut using a Microm HM355 paraffin microtome (Thermo Fisher Scientific, Waltham, Mass., USA) and stained with hematoxylin and eosin (H&E) stain. Images of stained sections were captured by a Leica CTR6000 microscope attached to a CCD camera (Micropublisher 5.0 RTV, Qimaging Surray BC, Canada).
The effectiveness of the retinylamine derivatives on preventing light-induced retinal degeneration was tested in four-week old Abca4^−/−Rdh8^−/− mice according to the experimental scheme depicted in FIG. 1. After the mice were dark-adapted for 48 h, the drugs were gavaged at a dose 0.875 μmol/per mouse, which was selected based on the half protection dose for retinylamine after a dosing experiment, FIG. 2. Retinylamine was tested as a control at the same dose. […] Retinal integrity was assessed using optical coherence tomography (OCT). […] The mice without any treatment had photoreceptor cells completely destroyed after light illumination, and were used as a negative control. The retinal integrity was determined based on the thickness of outer nuclear layer (ONL) of the retinas measured from the OCT images. Reduced ONL thickness signifies the decreasing number of photoreceptors and retinal degeneration.

[1] = Biodistribution of N-retinylamides and retinylamine derivatives in liver and eye after oral gavage; type: in vivo, mouse; conditions: for original drug detected in the eye: 2 h and 16 h; for metabolism in the eye: conclusion from biodistribution at 2 h and 16 h
Method: Female C57BL mice (4-week-old) were randomly divided into seven groups, six treated groups and one control group. Free Ret-NH2 (3.5 μmol per mouse, dissolved in DMSO and dispersed in vegetable oil) or retinylamine derivatives (Ret-Gly, Ret-L-Val-Gly, Ret-L-Phe, Ret-L-Leu, Ret-L-Val, 3.5 μmol per mouse, dissolved in DMSO and dispersed in vegetable oil) was administered by gastric gavage, control group was only gavaged vegetable oil. Then at each predetermined time point (2 and 16 h after drug administration), 3 mice were sacrificed. The liver and eye balls were collected to determine tissue N-retinylamide content for pharmacokinetic analysis. A portion of the liver tissue (0.3-0.5 g) was weighed, homogenized in 2 mL 1:1 ethanol:PBS solution and the eye balls were similarly processed (eye balls were combined for 3 mice). N-Retinylamides were extracted in 4 mL hexane, concentrated, and reconstituted to a 300 μL volume for liver (200 μL for eye). Normal-phase HPLC (Agilent-Zorbax SIL; 5 μm; 4.5×250 mm; flow rate of 1.4 mL/min; 80:20 hexane:ethyl acetate (v:v); detection at 325 nm) was utilized to determine N-retinylamide concentration in these tissues.
Female C57BL mice (4-week-old) were randomly divided into seven groups, six treated groups and one control group. Free Ret-NH2 (3.5 μmol per mouse, dissolved in DMSO and dispersed in vegetable oil) or retinylamine derivative (Ret-Gly, Ret-L-Val-Gly, Ret-L-Phe, Ret-L-Leu, Ret-L-Val, 3.5 μmol per mouse, dissolved in DMSO and dispersed in vegetable oil) was administered by gastric gavage, control group was only gavaged vegetable oil. Then at each predetermined time point (2 and 16 h after drug administration), 3 mice were sacrificed. The liver and eye balls were collected to determine tissue drug content for pharmacokinetic analysis. A portion of the liver tissue (0.3-0.5 g) was weighed, homogenized in 2 mL 1:1 ethanol:PBS solution and the eye balls were similarly processed. Retinylamine or its derivative was extracted in 4 mL ethyl acetate, concentrated, and reconstituted to a 300 μL volume for liver (200 μL for eye). Reverse-phase HPLC (analytical C18 reverse column; 5 μm; 250 mm×4.6 mm; flow rate of 1.0 mL/min; 60:40 acetonitrile:H2O (v:v) with 0.05% trifluoroacetic acid; detection at 325 nm) was utilized to determine retinylamine or its derivative in these tissues. […]
No N-retinylamides were detected in the eye at 2 h for all treated mice. The concentration of N-retinylamides in the liver of all treated mice increased at 16 h post-treatment. […] The concentrations of the original drugs were also determined in the liver and eye at 2 h and 16 h (FIGS. 7C, D). All tested drugs, including Ret-NH2, were detected in liver and their concentrations decreased from 2 h to 16 h.

[2] = 3.5 μmol per mouse oral, C57BL mice, 16 h

Row | SMILES | protection against light-induced retinal degeneration (ONL thickness from OCT) (Abca4^−/−Rdh8^−/− mice) | original drug detected in the eye ([1]; 3.5 μmol per mouse oral) | other results
1 | CC1=C(/C=C/C(C)=C/C=C/C(C)=C/CNC(=O)[C@H](C)N)C(C)(C)CCC1 [3a, (S)-2-amino-N-((2E,4E,6E,8E)-3,7-dimethyl-9-(2,6,6-trimethylcyclohex-1-en-1-yl)nona-2,4,6,8-tetraen-1-yl)propanamide] | little protecting efficacy | – | –
2 | CC[C@H](C)[C@H](N)C(=O)NC/C=C(C)/C=C/C=C(C)/C=C/C1=C(C)CCCC1(C)C [3c, (2S,3S)-2-amino-N-((2E,4E,6E,8E)-3,7-dimethyl-9-(2,6,6-trimethylcyclohex-1-en-1-yl)nona-2,4,6,8-tetraen-1-yl)-3-methylpentanamide] | little protecting efficacy | – | –
3 | CC1=C(/C=C/C(C)=C/C=C/C(C)=C/CNC(=O)[C@@H](C)N)C(C)(C)CCC1 [3f, (R)-2-amino-N-((2E,4E,6E,8E)-3,7-dimethyl-9-(2,6,6-trimethylcyclohex-1-en-1-yl)nona-2,4,6,8-tetraen-1-yl)propanamide] | little protecting efficacy | – | –
4 | CC1=C(/C=C/C(C)=C/C=C/C(C)=C/CNC(=O)[C@H](N)C(C)C)C(C)(C)CCC1 [3g, (R)-2-amino-N-((2E,4E,6E,8E)-3,7-dimethyl-9-(2,6,6-trimethylcyclohex-1-en-1-yl)nona-2,4,6,8-tetraen-1-yl)-3-methylbutanamide] | little protecting efficacy | – | –
5 | CC1=C(/C=C/C(C)=C/C=C/C(C)=C/CNC(=O)CCN)C(C)(C)CCC1 [3h, 3-amino-N-((2E,4E,6E,8E)-3,7-dimethyl-9-(2,6,6-trimethylcyclohex-1-en-1-yl)nona-2,4,6,8-tetraen-1-yl)propanamide] | little protecting efficacy | – | –
6 | CC1=C(/C=C/C(C)=C/C=C/C(C)=C/CNC(=O)[C@@H]2CCCN2)C(C)(C)CCC1 [3i, (S)—N-((2E,4E,6E,8E)-3,7-dimethyl-9-(2,6,6-trimethylcyclohex-1-en-1-yl)nona-2,4,6,8-tetraen-1-yl)pyrrolidine-2-carboxamide] | little protecting efficacy | – | –
7 | CC1=C(/C=C/C(C)=C/C=C/C(C)=C/CNC(=O)CN)C(C)(C)CCC1 [RG, 2-amino-N-((2E,4E,6E,8E)-3,7-dimethyl-9-(2,6,6-trimethylcyclohex-1-en-1-yl)nona-2,4,6,8-tetraen-1-yl)acetamide] | significant improvement on preventing light-induced retinopathy over retinyl amine; also recorded: relatively high protecting effect | detected in eyes at both 2 h and 16 h at a relatively high concentration | liver concentration of N-retinylamides [1, 2]: lower liver concentration of N-retinylamides than RF and RL; protection against light-induced retinal degeneration (ONL thickness from OCT) (Abca4^−/−Rdh8^−/− mice; listed as glycyl): significantly better protection than Ret-NH2 and other derivatives
8 | CC1=C(/C=C/C(C)=C/C=C/C(C)=C/CNC(=O)CNC(=O)[C@@H](N)C(C)C)C(C)(C)CCC1 [RGV, (S)-2-amino-N-(2-(((2E,4E,6E,8E)-3,7-dimethyl-9-(2,6,6-trimethylcyclohex-1-en-1-yl)nona-2,4,6,8-tetraen-1-yl)amino)-2-oxoethyl)-3-methylbutanamide] | significant improvement on preventing light-induced retinopathy over retinyl amine | – | –
9 | CC1=C(/C=C/C(C)=C/C=C/C(C)=C/CNC(=O)[C@@H](N)CC(C)C)C(C)(C)CCC1 [RL, (S)-2-amino-N-((2E,4E,6E,8E)-3,7-dimethyl-9-(2,6,6-trimethylcyclohex-1-en-1-yl)nona-2,4,6,8-tetraen-1-yl)-4-methylpentanamide] | low protecting effect | only detected at 2 h | metabolism in the eye [1]: rapidly metabolized into inactive N-retinylamides in the eye; protection against light-induced retinal degeneration (ONL thickness from OCT) (Abca4^−/−Rdh8^−/− mice; listed as L-leucyl): little protecting efficacy
10 | CC1=C(/C=C/C(C)=C/C=C/C(C)=C/CNC(=O)[C@@H](N)C(C)C)C(C)(C)CCC1 [RV, (S)-2-amino-N-((2E,4E,6E,8E)-3,7-dimethyl-9-(2,6,6-trimethylcyclohex-1-en-1-yl)nona-2,4,6,8-tetraen-1-yl)-3-methylbutanamide] | relatively high protecting effect | detected in eyes at both 2 h and 16 h at a relatively high concentration | N-retinylamides in the eye [1, 2]: no detectable N-retinylamides in the eye; liver concentration of N-retinylamides [1, 2]: lower liver concentration of N-retinylamides than RF and RL; metabolism in the eye [1]: stable against metabolism and had prolonged presence in the eye as intact drug molecules
